Data: patent US20100069385A1, “LIQUID FORMULATIONS OF PHOSPHOLIPASE ENZYME INHIBITORS” (WYETH, priority 2006, published 2010)

Assays:
[1] = Solubility at room temperature in water, acid and basic conditions; format: physicochemical; conditions: free acid, below HPLC detection limit, read-out: intrinsic solubility of the free acid
Procedure: The solubility of 4-(3-{5-chloro-1-(diphenylmethyl)-2-[2-({[2-(trifluoromethyl)benzyl]sulfonyl}amino)ethyl]-1H-indol-3-yl}propyl)benzoic acid was measured at room temperature in water, acid and basic conditions.

[2] = tested on: rat carrageenan-induced paw edema (CPE); test: Rat carrageenan-induced paw edema (CPE) study; format: in vivo
Procedure: Data from a rat carrageenan-induced paw edema (CPE) study indicated the minimum efficacious exposure of 4-(3-{5-chloro-1-(diphenylmethyl)-2-[2-({[2-(trifluoromethyl)benzyl]sulfonyl}amino)ethyl]-1H-indol-3-yl}propyl)benzoic acid was 1360 ng*hr/ml.

solubility [1]: < 0.031 µg/mL
SMILES: O=C(O)c1ccc(CCCc2c(CCNS(=O)(=O)Cc3ccccc3C(F)(F)F)n(C(c3ccccc3)c3ccccc3)c3ccc(Cl)cc23)cc1 [4-(3-{5-chloro-1-(diphenylmethyl)-2-[2-({[2-(trifluoromethyl)benzyl]sulfonyl}amino)ethyl]-1H-indol-3-yl}propyl)benzoic acid]
minimum efficacious exposure [2]: 1360 ng·h/mL
